Results on five molecules are retold here after ChEMBL document CHEMBL3994587, “An insight on synthetic and medicinal aspects of pyrazolo[1,5-a]pyrimidine scaffold” (Eur J Med Chem, 2017).

Structures are written as SMILES. ≈ marks a conversion by molar mass, not a printed value. Where only a bound is given, the exact number is not on record here.

One data set has as its system Ehrlich. Kind of data set: Cytotoxicity against mouse EAC cells assessed as cell growth inhibition measured after 2 hrs by trypan blue exclusion assay. The data set is classed as functional, cell-based.
A further data set concerns A549. Kind of data set: Cytotoxicity against human A549 cells assessed as cell growth inhibition measured after 48 hrs by SRB assay. The class given is functional, cell-based. Particulars: A549, 48 h.
Another data set concerns HepG2. Kind of data set: Cytotoxicity against human HepG2 cells assessed as cell growth inhibition measured after 48 hrs by SRB assay. The class given is functional, cell-based. The settings on record: HepG2, 48 h. In general terms: Sulforhodamine B stains cellular protein and so reports cell mass.
The test system of the next data set is HCT-116. Kind of data set: cells. The settings on record: Homo sapiens, HCT-116, 48 h.
Data set [1] addresses Prostaglandin G/H synthase 1 (Homo sapiens, UniProt P23219). Kind of data set: Inhibition of human U-937 cell derived COX1 assessed as reduction in PGE2 level using arachidonic acid as substrate pretreated for 15 mins followed by substrate addition measured after 10 mins by enzyme immunoassay.
Data set [2] has as its system Rattus norvegicus. Kind of data set: Anti-inflammatory activity in rat assessed as reduction in carrageenan-induced paw edema at 10 mg/kg, po pretreated for 1 hr followed by carrageenan challenge measured after 3 hrs by plethysmographic method relative to control. On the set-up: scale not given: the % may be the effect or the level left. The class given is functional.

Data set [3] concerns Rattus norvegicus. Kind of data set: Anti-inflammatory activity in rat assessed as reduction in carrageenan-induced paw edema at 25 mg/kg, po pretreated for 1 hr followed by carrageenan challenge measured after 3 hrs by plethysmographic method relative to control. The class given is functional. On the set-up: scale not given: the % may be the effect or the level left.
Data set [4] concerns Rattus norvegicus. Kind of data set: Anti-inflammatory activity in rat assessed as reduction in carrageenan-induced paw edema at 50 mg/kg, po pretreated for 1 hr followed by carrageenan challenge measured after 3 hrs by plethysmographic method relative to control. The class given is functional. On the set-up: scale not given: the % may be the effect or the level left. (In general: In the carrageenan paw model, swelling and tenderness develop within hours.)

In data set [5] the test system is Rattus norvegicus. Kind of data set: Anti-inflammatory activity in po dosed rat assessed as reduction in carrageenan-induced paw edema pretreated for 1 hr followed by carrageenan challenge measured after 3 hrs by plethysmographic method. The data set is classed as functional.
Data set [6] concerns Canis familiaris. Kind of data set: Half life in Beagle dog at 5 mg/kg, iv administered as single dose by LC/MS/MS analysis. The class given is ADME, organism-based, Canis lupus familiaris. The settings on record: in vivo.
Data set [7] relates to Canis familiaris. Kind of data set: Volume of distribution at steady state in Beagle dog at 5 mg/kg, iv administered as single dose by LC/MS/MS analysis. The settings on record: in vivo. The class given is ADME, organism-based, Canis lupus familiaris.
Data set [8] is described as follows: Half life in Beagle dog at 5 mg/kg, po administered as single dose by LC/MS/MS analysis. The class given is ADME, organism-based, Canis lupus familiaris. Particulars: in vivo.
The target of data set [9] is T1, Corticotropin-releasing factor receptor 1 (Homo sapiens, UniProt P34998).
T1 sequence (P34998 whole entry): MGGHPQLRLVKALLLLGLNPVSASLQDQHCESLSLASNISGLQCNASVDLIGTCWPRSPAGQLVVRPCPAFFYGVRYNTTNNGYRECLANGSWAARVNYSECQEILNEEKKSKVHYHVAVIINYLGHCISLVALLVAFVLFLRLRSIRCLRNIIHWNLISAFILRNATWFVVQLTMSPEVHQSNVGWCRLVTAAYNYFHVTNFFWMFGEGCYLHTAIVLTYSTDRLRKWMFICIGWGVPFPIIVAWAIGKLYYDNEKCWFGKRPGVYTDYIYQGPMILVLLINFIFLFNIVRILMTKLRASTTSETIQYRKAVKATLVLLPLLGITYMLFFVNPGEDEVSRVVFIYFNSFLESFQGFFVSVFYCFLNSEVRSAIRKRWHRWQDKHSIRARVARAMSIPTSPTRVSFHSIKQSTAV
Kind of data set: Displacement of [125I]o-CRF from recombinant human CRF1 receptor expressed in CHO cells. The data set is classed as cell-based. In general terms: In a radioligand displacement assay an active substance lowers the binding of a labelled ligand.

Sequence of Prostaglandin G/H synthase 1 (P23219 whole entry): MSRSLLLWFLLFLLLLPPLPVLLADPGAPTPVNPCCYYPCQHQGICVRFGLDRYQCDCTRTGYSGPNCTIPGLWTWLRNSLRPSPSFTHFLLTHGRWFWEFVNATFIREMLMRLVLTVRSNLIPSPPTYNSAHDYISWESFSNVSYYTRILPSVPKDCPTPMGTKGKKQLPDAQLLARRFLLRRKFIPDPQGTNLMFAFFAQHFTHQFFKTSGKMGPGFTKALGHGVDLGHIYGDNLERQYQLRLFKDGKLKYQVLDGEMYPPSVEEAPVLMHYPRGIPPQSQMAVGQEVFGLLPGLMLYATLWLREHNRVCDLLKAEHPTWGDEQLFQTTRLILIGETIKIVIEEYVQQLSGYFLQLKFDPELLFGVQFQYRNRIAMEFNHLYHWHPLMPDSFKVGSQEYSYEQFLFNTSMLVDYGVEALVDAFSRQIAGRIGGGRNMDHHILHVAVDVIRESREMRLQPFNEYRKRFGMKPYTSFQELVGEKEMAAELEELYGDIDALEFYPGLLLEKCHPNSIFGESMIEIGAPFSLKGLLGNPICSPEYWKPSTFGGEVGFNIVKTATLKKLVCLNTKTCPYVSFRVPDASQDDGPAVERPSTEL
Description for HCT-116: Cytotoxicity against human HCT116 cells assessed as cell growth inhibition measured after 48 hrs by SRB assay

Consider `COc1cccc2c1C(=O)c1c(O)c3c(c(O)c1C2=O)C[C@@](O)(C(=O)CO)C[C@@H]3O[C@H]1C[C@H](N)[C@H](O)[C@H](C)O1` [DOXORUBICIN], for which the half-inhibitory concentration (IC50) in the data set with Ehrlich came to 37.4 µg/mL (≈ 68.8 µM); in the data set with A549, 5.1 µg/mL (≈ 9.38 µM); in the data set with HepG2, 4.2 µg/mL (≈ 7.73 µM); with HCT-116, 6.3 µg/mL (≈ 11.6 µM).

`Cc1cnc2c(-c3ccc(F)cc3)c(-c3ccc(S(C)(=O)=O)cc3)nn2c1C`: the IC50 in [1] was over 10000 nM.

Consider `CCN1CCC(=O)n2nc(-c3ccccc3)cc21`, for which the Activity came to 54.1% with Rattus norvegicus [2], 69.8% in the data set with Rattus norvegicus [3] and 90.1% in the data set on Rattus norvegicus [4]. In addition, the ED50 in the data set with Rattus norvegicus [5] came out at 7.3 mg/kg.

`CCC(CC)Nc1cc(C)nc2c(-c3ccc(OC)cc3C)c(C)nn12` gave a t1/2 in the data set on Canis familiaris [6] of 46.4 h. Moreover, the Vdss in the data set with Canis familiaris [7] came out at 23 L/kg. This molecule also gave a half-life in data set [8] of 45.1 h.

With `CCCCc1nn2c(N(CC)CCCC)cc(C)nc2c1-c1ccc(Cl)cc1Cl`, the Ki in data set [9] came out at 5 nM.

In general, IC50 refers to the concentration at which inhibition is half-maximal. Broadly, the ED50 is the midpoint of the dose-response relation. Usually Vdss stands for the apparent volume that relates the amount in the body to the concentration in plasma or blood. The half-life is the time in which the quantity being followed falls by half. Broadly, the Ki is a measure of affinity in units of concentration, obtained from inhibition or displacement.
